Data reported in patent publication US20260315398A1, “POLYPEPTIDE DRUG-CONTAINING SUSTAINED-RELEASE MICROSPHERE, PHARMACEUTICAL FORMULATION THEREOF, PREPARATION METHOD THEREFOR, AND USE THEREOF” (HUILLY PHARMA CO., LTD, priority 2023, published 2026).

Legend:
[1] = Effect Simulation of Aggregation Inhibitor, AFM observation of fibrils (FIG. 6); assay type: physicochemical; details: aggregation inhibitors sucrose (1) and phenol (2); inhibitor:drug:water 1:3:100, lyophilized, PBS pH 7.4, AFM
Procedure: In this embodiment, simulation experiments of anti-aggregation effects are carried out using liraglutide (Lira) and semaglutide (Sema) as examples, respectively, with specific methods as follows.
A mixture of aggregation inhibitors (aggregation inhibitor 1 is sucrose, and aggregation inhibitor 2 is phenol), a drug substance, and deionized water are mixed at a weight ratio of 1:3:100 and subsequently lyophilized. PBS (pH 7.4) is added dropwise to the lyophilized drug powder to simulate gradual infiltration of the drug inside THE microsphere. Afterwards, a portion of the drug is dissolved in the PBS, and an atomic force microscope (AFM) is used to observe whether fibrils are formed by the drug and to simulate structural changes of the drug during the slow permeation process inside the microsphere.

[2] = high-concentration conditions; cited from earlier work

inhibition of fibrillation by aggregation inhibitor [1]: significantly inhibit fibrillation
Structure (SMILES): CCCCCCCCCCCCCCCC(=O)N[C@@H](CCC(=O)NCCCC[C@H](NC(=O)[C@H](C)NC(=O)[C@H](C)NC(=O)[C@H](CCC(N)=O)NC(=O)CNC(=O)[C@H](CCC(=O)O)NC(=O)[C@H](CC(C)C)NC(=O)[C@H](Cc1ccc(O)cc1)NC(=O)[C@H](CO)NC(=O)[C@H](CO)NC(=O)[C@@H](NC(=O)[C@H](CC(=O)O)NC(=O)[C@H](CO)NC(=O)[C@@H](NC(=O)[C@H](Cc1ccccc1)NC(=O)[C@@H](NC(=O)CNC(=O)[C@H](CCC(=O)O)NC(=O)[C@H](C)NC(=O)[C@@H](N)Cc1cnc[nH]1)[C@@H](C)O)[C@@H](C)O)C(C)C)C(=O)N[C@@H](CCC(=O)O)C(=O)N[C@@H](Cc1ccccc1)C(=O)N[C@H](C(=O)N[C@@H](C)C(=O)N[C@@H](Cc1c[nH]c2ccccc12)C(=O)N[C@@H](CC(C)C)C(=O)N[C@H](C(=O)N[C@@H](CCCNC(=N)N)C(=O)NCC(=O)N[C@@H](CCCNC(=N)N)C(=O)NCC(=O)O)C(C)C)[C@@H](C)CC)C(=O)O [liraglutide]
aggregation and drug polymer fiber formation [2]: prone to aggregation and even form drug polymer fibers
